Experimental findings from patent US9586951B2 (FUJIFILM Corporation, priority 2013, dated 2017) are described below.

SMILES strings stand for the structures.

In experiment [1] the target is T1, ATM (Homo sapiens, UniProt Q13315).
T1 construct: detecting phosphorylation of Chk2 in a human non-small cell lung cancer cell line NCI-H460 (ATCC company); host or cells: NCI-H460 human non-small cell lung cancer cells
Briefly: ATM inhibition test (phosphorylation of Chk2 generated by ionizing radiation, AlphaScreen SureFire). It is filed as cell-based. Conditions: phosphorylated Chk2 in NCI-H460 cells, ionizing radiation 8Gy, 1 hour after test compound treatment; read-out: ATM inhibitory activity. Summed up:
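Phosphorylated Chk2 read by AlphaScreen SureFire in human non-small cell lung cancer NCI-H460 cells, 1 hour after 8Gy ionizing radiation at 37° C. Compound added 1 hour before irradiation. Percent inhibition normalised between irradiated and non-irradiated drug-untreated signals.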

Experiment [2] deals with human non-small cell lung cancer cell line NCI-H460. Briefly: Cell proliferation inhibition test by sensitivity-enhancing to ionizing radiation (Cell Titer Glo). It is filed as cell-based. Conditions: concentration in which SER became 2, NCI-H460 cells, ionizing radiation 2 Gy, cultured 120 hour. Summed up:
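Cells seeded at 2×10^3 cells/mL in RPMI-1640 with 10% FBS; after 24 h, compound added (0.1% DMSO), and 30 min later half the plates irradiated at 2 Gy. After 120 hour at 37° C, viability by Cell Titer Glo luminescence; SER2 is the concentration giving SER of 2 by sigmoidal fit.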

T1 sequence (Q13315 whole entry): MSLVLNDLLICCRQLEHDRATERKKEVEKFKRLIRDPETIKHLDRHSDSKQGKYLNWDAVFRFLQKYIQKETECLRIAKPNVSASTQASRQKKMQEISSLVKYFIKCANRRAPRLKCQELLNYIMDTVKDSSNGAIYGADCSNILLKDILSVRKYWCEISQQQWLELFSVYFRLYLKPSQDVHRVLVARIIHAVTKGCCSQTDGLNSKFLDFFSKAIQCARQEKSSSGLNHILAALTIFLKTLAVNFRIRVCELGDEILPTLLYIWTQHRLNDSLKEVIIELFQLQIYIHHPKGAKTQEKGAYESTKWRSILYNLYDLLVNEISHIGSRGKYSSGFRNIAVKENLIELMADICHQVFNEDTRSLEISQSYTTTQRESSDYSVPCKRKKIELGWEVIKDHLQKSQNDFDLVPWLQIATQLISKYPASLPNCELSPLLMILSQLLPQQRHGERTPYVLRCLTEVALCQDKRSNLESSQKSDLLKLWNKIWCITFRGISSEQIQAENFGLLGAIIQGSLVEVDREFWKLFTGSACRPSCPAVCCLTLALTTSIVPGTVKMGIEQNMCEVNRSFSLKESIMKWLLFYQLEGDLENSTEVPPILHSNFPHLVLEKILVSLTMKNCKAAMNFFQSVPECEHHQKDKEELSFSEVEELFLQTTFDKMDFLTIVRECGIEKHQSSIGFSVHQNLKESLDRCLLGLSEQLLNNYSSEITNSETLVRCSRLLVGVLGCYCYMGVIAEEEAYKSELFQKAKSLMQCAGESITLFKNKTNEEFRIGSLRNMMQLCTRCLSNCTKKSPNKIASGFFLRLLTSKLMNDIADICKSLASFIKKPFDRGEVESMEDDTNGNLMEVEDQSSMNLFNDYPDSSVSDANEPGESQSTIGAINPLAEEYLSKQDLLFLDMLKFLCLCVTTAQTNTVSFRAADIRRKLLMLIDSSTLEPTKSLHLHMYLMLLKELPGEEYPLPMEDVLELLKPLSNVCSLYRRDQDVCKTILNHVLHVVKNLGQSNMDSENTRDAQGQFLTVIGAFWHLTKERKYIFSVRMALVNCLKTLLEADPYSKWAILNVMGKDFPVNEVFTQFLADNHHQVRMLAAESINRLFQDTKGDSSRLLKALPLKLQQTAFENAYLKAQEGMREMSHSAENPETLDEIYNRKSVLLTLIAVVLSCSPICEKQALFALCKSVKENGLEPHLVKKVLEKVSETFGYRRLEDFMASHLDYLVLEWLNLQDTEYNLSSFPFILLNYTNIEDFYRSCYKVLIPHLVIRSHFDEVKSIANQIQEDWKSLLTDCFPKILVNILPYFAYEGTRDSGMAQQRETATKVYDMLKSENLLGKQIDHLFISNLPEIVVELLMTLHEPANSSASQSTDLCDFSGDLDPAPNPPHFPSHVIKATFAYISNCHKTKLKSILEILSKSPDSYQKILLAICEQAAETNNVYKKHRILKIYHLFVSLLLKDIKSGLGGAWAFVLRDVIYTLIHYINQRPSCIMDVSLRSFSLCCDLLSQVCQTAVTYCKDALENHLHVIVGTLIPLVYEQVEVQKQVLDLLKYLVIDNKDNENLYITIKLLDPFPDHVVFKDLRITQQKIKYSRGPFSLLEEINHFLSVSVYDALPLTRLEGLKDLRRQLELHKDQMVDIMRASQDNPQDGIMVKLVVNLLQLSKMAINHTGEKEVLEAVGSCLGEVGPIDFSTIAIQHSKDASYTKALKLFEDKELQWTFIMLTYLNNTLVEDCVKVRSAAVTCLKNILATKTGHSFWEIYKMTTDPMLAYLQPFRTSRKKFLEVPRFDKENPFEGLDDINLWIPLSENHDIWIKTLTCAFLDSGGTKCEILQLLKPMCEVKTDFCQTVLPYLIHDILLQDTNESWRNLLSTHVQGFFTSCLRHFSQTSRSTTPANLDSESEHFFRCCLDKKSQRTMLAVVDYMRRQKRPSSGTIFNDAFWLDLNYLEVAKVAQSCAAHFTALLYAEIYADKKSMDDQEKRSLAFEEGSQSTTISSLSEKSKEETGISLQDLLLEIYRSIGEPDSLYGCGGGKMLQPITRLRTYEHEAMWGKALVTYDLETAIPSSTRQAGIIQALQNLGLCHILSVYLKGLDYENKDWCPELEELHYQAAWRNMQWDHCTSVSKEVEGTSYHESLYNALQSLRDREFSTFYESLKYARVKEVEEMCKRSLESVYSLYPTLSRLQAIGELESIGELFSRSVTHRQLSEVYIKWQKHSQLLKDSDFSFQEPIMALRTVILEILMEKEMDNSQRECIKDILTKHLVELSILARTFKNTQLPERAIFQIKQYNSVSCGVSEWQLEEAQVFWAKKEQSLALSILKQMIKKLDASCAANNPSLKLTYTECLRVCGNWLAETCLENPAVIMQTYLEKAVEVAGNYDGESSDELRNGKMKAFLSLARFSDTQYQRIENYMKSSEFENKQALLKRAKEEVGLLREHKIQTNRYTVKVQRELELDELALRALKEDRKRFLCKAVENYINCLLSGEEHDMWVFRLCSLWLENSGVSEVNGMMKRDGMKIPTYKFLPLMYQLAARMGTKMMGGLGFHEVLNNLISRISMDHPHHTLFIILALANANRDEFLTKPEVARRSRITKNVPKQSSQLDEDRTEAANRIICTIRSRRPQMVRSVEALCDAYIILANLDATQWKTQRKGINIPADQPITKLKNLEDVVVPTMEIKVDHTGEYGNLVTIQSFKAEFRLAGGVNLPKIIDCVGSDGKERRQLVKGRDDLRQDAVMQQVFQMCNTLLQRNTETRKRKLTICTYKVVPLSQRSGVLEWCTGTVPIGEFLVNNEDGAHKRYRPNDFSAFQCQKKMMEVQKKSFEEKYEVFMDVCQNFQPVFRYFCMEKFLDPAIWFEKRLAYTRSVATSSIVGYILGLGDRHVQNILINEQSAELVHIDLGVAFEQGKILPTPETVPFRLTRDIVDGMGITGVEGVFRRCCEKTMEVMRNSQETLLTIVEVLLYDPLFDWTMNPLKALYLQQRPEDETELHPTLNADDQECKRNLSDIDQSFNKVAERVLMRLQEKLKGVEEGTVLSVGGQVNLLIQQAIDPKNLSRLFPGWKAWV

As for `COc1cnc(C(C)Nc2ccc3c(c2)Sc2cccc(-c4cc(N5CCOCC5)cc(=O)[nH]4)c2S3)cn1` (stereo not shown) [Example 1-12-114, 6-(7-((1-(5-Methoxypyrazin-2-yl)ethyl)amino)thianthren-1-yl)-4-morpholino pyridin-2(1H) one], in experiment [1], the IC50 was below 100 nM. Moreover, the SER2 (concentration at which the radiation sensitivity-enhancement ratio reaches 2) in experiment [2] (Homo sapiens, NCI-H460, 120 h) is 100 to 500 nM.

Consider `CC(Nc1ccc2c(c1)Sc1cccc(-c3cc(N4CCOCC4)cc(=O)[nH]3)c1S2)c1nccc(CF)n1` (stereo not shown) [Example 1-12-85, 6-(7-((1-(4-(Fluoromethyl)pyrimidin-2-yl)ethyl)amino)thianthren-1-yl)-4-morpholino pyridin-2(1H)-one], for which the IC50 in experiment [1] is below 100 nM. The SER2 (concentration at which the radiation sensitivity-enhancement ratio reaches 2) in experiment [2] (Homo sapiens, NCI-H460, 120 h) is below 100 nM.

Consider `O=c1cc(N2CCOCC2)cc(-c2c(F)ccc3c2Oc2ccc(NCc4cncc(Cl)c4)cc2C3)[nH]1` [Example 2-46-2, 6-(7-(((5-Chloropyridin-3-yl)methyl)amino)-3-fluoro-9H-xanthen-4-yl)-4-morpholinopyridin-2(1H)-one], for which the IC50 in experiment [1] is below 100 nM. Also, the SER2 (concentration at which the radiation sensitivity-enhancement ratio reaches 2) in experiment [2] (Homo sapiens, NCI-H460, 120 h) was 100 to 500 nM.

With `Cc1cccc(C(CCN(C)C)Nc2ccc3c(c2)Sc2cccc(-c4cc(N5CCOCC5)cc(=O)[nH]4)c2S3)n1` (single isomer, unassigned) [Example 1-22-11-2, 6-(7-((3-(dimethylamino)-1-(6-methylpyridin-2-yl)propyl)amino)thianthren-1-yl)-4-morpholinopyridin-2(1H)-one], in experiment [1], the IC50 was below 100 nM. For the same molecule, in experiment [2], the SER2 (concentration at which the radiation sensitivity-enhancement ratio reaches 2) was below 100 nM.

For the molecule `CCN(C)c1cncc(CNc2ccc3c(c2)Cc2cccc(-c4cc(N5CCOCC5)cc(=O)[nH]4)c2O3)c1` [Example 2-21-9, 6-(7-(((5-(Ethyl(methyl)amino)pyridin-3-yl)methyl)amino)-9H-xanthen-4-yl)-4-morpholino pyridin-2(1H)-one], the IC50 in experiment [1] is below 100 nM. Also, in experiment [2] (Homo sapiens, NCI-H460, 120 h), the SER2 (concentration at which the radiation sensitivity-enhancement ratio reaches 2) was 500 to 2000 nM.

On to `O=c1cc(N2CCOCC2)cc(-c2cccc3c2Sc2ccc(NCc4ccnc(Cl)c4)cc2S3)[nH]1` [Example 1-12-18], for which the IC50 in experiment [1] is below 100 nM; in experiment [2] (read-out: SER2), 100 to 500 nM.

`CN(C)c1ncc(CNc2ccc3c(c2)Sc2cccc(-c4cc(N5CCOCC5)cc(=O)[nH]4)c2S3)cn1` [Example 1-12-11, 6-(7-(((2-(Dimethylamino)pyrimidin-5-yl)methyl)amino)thianthren-1-yl)-4-morpholino pyridin-2(1H)-one]: in experiment [1], the IC50 was below 100 nM. Further, the SER2 (concentration at which the radiation sensitivity-enhancement ratio reaches 2) in experiment [2] (Homo sapiens, NCI-H460, 120 h) was in the range of 100 to 500 nM.

With `N#Cc1cncc(CNc2ccc3c(c2)Cc2cccc(-c4cc(N5CCOCC5)cc(=O)[nH]4)c2O3)c1` [Example 2-14-7, 5-(((5-(4-Morpholino-6-oxo-1,6-dihydropyridin-2-yl)-9H-xanthen-2-yl)amino)methyl)nicotinonitrile], the IC50 in experiment [1] was below 100 nM. The SER2 (concentration at which the radiation sensitivity-enhancement ratio reaches 2) in experiment [2] (Homo sapiens, NCI-H460, 120 h) lay in the range of 500 to 2000 nM.

Turning to `Cc1ccc(C2(Nc3ccc4c(c3)Sc3cccc(-c5cc(N6CCOCC6)cc(=O)[nH]5)c3S4)COC2)nc1` [Example 1-50-4, 6-(7-((3-(5-Methylpyridin-2-yl)oxetan-3-yl)amino)thianthren-1-yl)-4-morpholino pyridin-2(1H)-one], in experiment [1], the IC50 is below 100 nM. In experiment [2] (Homo sapiens, NCI-H460, 120 h), the SER2 (concentration at which the radiation sensitivity-enhancement ratio reaches 2) was in the range of 100 to 500 nM.

For `CC(CCN1CCOCC1)Nc1ccc2c(c1)Sc1cccc(-c3cc(N4CCOCC4)cc(=O)[nH]3)c1S2` (stereo not shown) [Example 1-42-1, 4-Morpholino-6-(7-((4-morpholinobutan-2-yl)amino)thianthren-1-yl)pyridin-2(1H)-one], the IC50 in experiment [1] was below 100 nM. Also, in experiment [2] (Homo sapiens, NCI-H460, 120 h), the SER2 (concentration at which the radiation sensitivity-enhancement ratio reaches 2) is 100 to 500 nM.

Consider `Cc1cccc(C(Nc2ccc3c(c2)Sc2cccc(-c4cc(N5CCOCC5)cc(=O)[nH]4)c2S3)C2CCN(C)C2)n1` (single isomer, unassigned) [Example 1-22-6, 6-(7-(((6-Methylpyridin-2-yl)(1-methylpyrrolidin-3-yl)methyl)amino)thianthren-1-yl)-4-morpholino pyridin-2 (1H)-one], for which the IC50 in experiment [1] is below 100 nM. Moreover, the SER2 (concentration at which the radiation sensitivity-enhancement ratio reaches 2) in experiment [2] (Homo sapiens, NCI-H460, 120 h) is below 100 nM.

Take `Cc1cccc(C(C)Nc2ccc3c(c2)Sc2cccc(-c4cc(N5CCOCC5)cc(=O)[nH]4)c2S3)n1` (single isomer, unassigned) [Example 1-12-136-1, 6-(7-((1-(6-methylpyridin-2-yl)ethyl)amino)thianthren-1-yl)-4-morpholinopyridin-2(1H)-one]: in experiment [1], the IC50 was below 100 nM. For the same molecule, in experiment [2] (Homo sapiens, NCI-H460, 120 h), the SER2 (concentration at which the radiation sensitivity-enhancement ratio reaches 2) was below 100 nM.

Consider `COc1ccc(CNc2ccc3c(c2)Cc2cccc(-c4cc(N5CCOCC5)cc(=O)[nH]4)c2S3)cn1` [Example 3-8-10, 6-(7-(((6-Methoxypyridin-3-yl)methyl)amino)-9H-thioxanthen-4-yl)-4-morpholino pyridin-2(1H)-one], for which the IC50 in experiment [1] was below 100 nM. Besides, the SER2 (concentration at which the radiation sensitivity-enhancement ratio reaches 2) in experiment [2] (Homo sapiens, NCI-H460, 120 h) lay in the range of 100 to 500 nM.

On to `Cc1cnc(C(CCN(C)C)Nc2ccc3c(c2)Sc2cccc(-c4cc(N5CCOCC5)cc(=O)[nH]4)c2S3)cn1` (stereo not shown) [Example 1-22-2, 6-(7-((3-(Dimethylamino)-1-(5-methylpyrazin-2-yl)propyl)amino)thianthren-1-yl)-4-morpholino pyridin-2 (1H)-one], for which the IC50 in experiment [1] was below 100 nM. Moreover, in experiment [2] (Homo sapiens, NCI-H460, 120 h), the SER2 (concentration at which the radiation sensitivity-enhancement ratio reaches 2) fell in the range of 100 to 500 nM.

Take `CCC(Nc1ccc2c(c1)Sc1cccc(-c3cc(N4CCOCC4)cc(=O)[nH]3)c1S2)c1ccc(C)cn1` (stereo not shown) [Example 1-12-118, 6-(7-((1-(5-Methylpyridin-2-yl)propyl)amino)thianthren-1-yl)-4-morpholino pyridin-2(1H)-one]: in experiment [1], the IC50 was below 100 nM. In addition, the SER2 (concentration at which the radiation sensitivity-enhancement ratio reaches 2) in experiment [2] (Homo sapiens, NCI-H460, 120 h) lay in the range of 100 to 500 nM.

In the case of `O=c1cc(N2CCOCC2)cc(-c2cccc3c2Sc2ccc(NC(CF)CN4CCCCC4)cc2S3)[nH]1` (stereo not shown) [Example 1-41-2, 6-(7-((1-Fluoro-3-(piperidin-1-yl)propan-2-yl)amino)thianthren-1-yl)-4-morpholinopyridin-2(1H)-one], the IC50 in experiment [1] was below 100 nM. Besides, the SER2 (concentration at which the radiation sensitivity-enhancement ratio reaches 2) in experiment [2] (Homo sapiens) was 100 to 500 nM.

In the case of `CNc1ccc(CNc2ccc3c(c2)Cc2cccc(-c4cc(N5CCOCC5)cc(=O)[nH]4)c2O3)cn1` [Example 2-2-7, 6-(7-(((6-(Methylamino)pyridin-3-yl)methyl)amino)-9H-xanthen-4-yl)-4-morpholino pyridin-2 (1H)-one], in experiment [1], the IC50 was 100 to 500 nM. Besides, the SER2 (concentration at which the radiation sensitivity-enhancement ratio reaches 2) in experiment [2] (Homo sapiens, NCI-H460, 120 h) lay in the range of 100 to 500 nM.

Turning to `CC(CN1C[C@@H](C)O[C@@H](C)C1)Nc1ccc2c(c1)Sc1cccc(-c3cc(N4CCOCC4)cc(=O)[nH]3)c1S2` (stereo partly drawn) [Example 1-13-12, 6-(7-((1-((2S,6R)-2,6- Dimethylmorpholino)propan-2-yl)amino)thianthren-1-yl)-4-morpholino pyridin-2(1H)-one], the IC50 in experiment [1] is below 100 nM. The SER2 (concentration at which the radiation sensitivity-enhancement ratio reaches 2) in experiment [2] (Homo sapiens, NCI-H460, 120 h) was 100 to 500 nM.

Consider `Cc1cnc(C(C)Nc2ccc3c(c2)Cc2cccc(-c4cc(N5CCOCC5)cc(=O)[nH]4)c2O3)cn1` (single isomer, unassigned) [Example 2-14-90-2, 6-(7-((1-(5-methylpyrazin-2-yl)ethyl)amino)-9H-xanthen-4-yl)-4-morpholinopyridin-2(1H)-one], for which, in experiment [1], the IC50 was below 100 nM. For the same molecule, the SER2 (concentration at which the radiation sensitivity-enhancement ratio reaches 2) in experiment [2] (Homo sapiens, NCI-H460, 120 h) was below 100 nM.

`Cc1ccc(C(C)(C)Nc2ccc3c(c2)Sc2cccc(-c4cc(N5CCOCC5)cc(=O)[nH]4)c2S3)nc1` [Example 1-50-2, 6-(7-((2-(5-Methylpyridin-2-yl)propan-2-yl)amino)thianthren-1-yl)-4-morpholino pyridin-2(1H)-one]: the IC50 in experiment [1] was below 100 nM. For the same molecule, the SER2 (concentration at which the radiation sensitivity-enhancement ratio reaches 2) in experiment [2] (Homo sapiens, NCI-H460, 120 h) lay within 100 to 500 nM.

Turning to `CC(Nc1ccc2c(c1)Cc1cccc(-c3cc(N4CCOCC4)cc(=O)[nH]3)c1O2)c1cc(Cl)ccn1` (single isomer, unassigned) [Example 2-14-89-2, 6-(7-((1-(4-chloropyridin-2-yl)ethyl)amino)-9H-xanthen-4-yl)-4-morpholinopyridin-2(1H)-one], the IC50 in experiment [1] is below 100 nM. In experiment [2] (Homo sapiens, NCI-H460, 120 h), the SER2 (concentration at which the radiation sensitivity-enhancement ratio reaches 2) is below 100 nM.

Turning to `[2H]C([2H])([2H])C(Nc1ccc2c(c1)Sc1cccc(-c3cc(N4CCOCC4)cc(=O)[nH]3)c1S2)c1cccc(F)n1` (stereo not shown) [Example 1-12-134, 4-Morpholino-6-(7-((2,2,2-trideutero-1-(6-fluoropyridin-2-yl)ethyl)amino)thianthren-1-yl) pyridin-2(1H)-one], the IC50 in experiment [1] is below 100 nM. Besides, the SER2 (concentration at which the radiation sensitivity-enhancement ratio reaches 2) in experiment [2] (Homo sapiens, NCI-H460, 120 h) lay within 100 to 500 nM.

Take `Cc1cnc(C(C)Nc2ccc3c(c2)Sc2cccc(-c4cc(N5CCOCC5)cc(=O)[nH]4)c2S3)cn1` (single isomer, unassigned) [Example 1-12-137-1, 6-(7-((1-(5-methylpyrazin-2-yl)ethyl)amino)thianthren-1-yl)-4-morpholinopyridin-2(1H)-one]: the IC50 in experiment [1] was below 100 nM. The SER2 (concentration at which the radiation sensitivity-enhancement ratio reaches 2) in experiment [2] (Homo sapiens, NCI-H460, 120 h) is below 100 nM.
